Measurements reported in patent US9663473B2 (Actelion Pharmaceuticals Ltd, priority 2013, dated 2017).
pEC50: −log10 of the molar value.

Biological target: T1, recombinant human ALX receptor (Homo sapiens, UniProt P25090)
T1 construct: expressed in transfected cells; host or cells: HEK293 (HEK293-hALXR-Gα16)
T1 sequence (P25090 1-351): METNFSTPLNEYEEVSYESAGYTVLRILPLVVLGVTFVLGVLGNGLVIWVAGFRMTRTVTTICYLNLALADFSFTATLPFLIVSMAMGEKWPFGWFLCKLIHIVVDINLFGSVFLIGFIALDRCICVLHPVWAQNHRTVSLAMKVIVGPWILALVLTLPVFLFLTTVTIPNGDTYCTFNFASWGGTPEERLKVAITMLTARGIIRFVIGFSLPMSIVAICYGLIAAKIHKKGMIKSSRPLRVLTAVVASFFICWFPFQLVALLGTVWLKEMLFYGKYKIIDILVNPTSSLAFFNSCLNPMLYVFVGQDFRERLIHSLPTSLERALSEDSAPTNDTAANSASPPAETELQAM
Experiment: Intracellular calcium measurements (FLIPR), ALX receptor agonistic activity
Type: cell-based
Settings: HEK293-hALXR-Gα16 cells, Fluo-4 calcium signal, normalized to WKYMVm 10 nM
Summary of the method: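 HEK293 cells co-expressing human ALX receptor and Gα16 were loaded with 1 μM Fluo-4 AM for 60 min at 37° C., then exposed to serially diluted compounds on FLIPR Tetra. Peak fluorescence above baseline (ex 488/em 540 nm) was normalized to 10 nM WKYMVm as high control.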

pEC50	Structure (SMILES)
9.00	COc1cc(F)c(CC(NC(=O)NC23CCC(O)(CC2)CC3)c2nc3ccccc3[nH]2)cc1F (single isomer, unassigned; ent-1) [Example 357, 1-(1-(1H-Benzo[d]imidazol-2-yl)-2-(2,5-difluoro-4-methoxyphenyl)ethyl)-3-(4-hydroxybicyclo[2.2.2]octan-1-yl)urea (ent-1)]
8.41	O=C(NC(Cc1ccc(C(F)(F)F)cc1F)c1nc2cc(F)ccc2[nH]1)NC12CCC(O)(CC1)CC2 (single isomer, unassigned; ent-1) [Example 361, 1-(1-(5-Fluoro-1H-benzo[d]imidazol-2-yl)-2-(2-fluoro-4-(trifluoromethyl)phenyl)ethyl)-3-(4-hydroxybicyclo[2.2.2]octan-1-yl)urea (ent-1)]
7.57	O=C(NC(Cc1ccc(C(F)(F)F)cc1F)c1nc2ccccc2[nH]1)NC12CCC(O)(CC1)CC2 (single isomer, unassigned; ent-1) [Example 362, 1-(1-(1H-Benzo[d]imidazol-2-yl)-2-(2-fluoro-4-(trifluoromethyl)phenyl)ethyl)-3-(4-hydroxybicyclo[2.2.2]octan-1-yl)urea (ent-1)]
8.25	O=C(NC(Cc1ccc(C(F)(F)F)cc1F)c1nc2cc(F)ccc2[nH]1)N[C@H]1CC[C@H](O)CC1 (single isomer, unassigned; ent-1) [Example 363, 1-(1-(5-Fluoro-1H-benzo[d]imidazol-2-yl)-2-(2-fluoro-4-(trifluoromethyl)phenyl)ethyl)-3-(trans-4-hydroxycyclohexyl)urea (ent-1)]
8.77	COc1ccc(CC(NC(=O)N[C@H]2CC[C@H](O)CC2)c2nc3ccccc3[nH]2)c(F)c1F (single isomer, unassigned; ent-1) [Example 365, 1-(1-(1H-Benzo[d]imidazol-2-yl)-2-(2,3-difluoro-4-methoxyphenyl)ethyl)-3-(trans-4-hydroxycyclohexyl)urea (ent-1)]
9.40	COc1cc(F)c(CC(NC(=O)N[C@H]2CC[C@H](O)CC2)c2nc3cc(F)ccc3[nH]2)c(F)c1 (single isomer, unassigned; ent-1) [Example 366, 1-(2-(2,6-Difluoro-4-methoxyphenyl)-1-(5-fluoro-1H-benzo[d]imidazol-2-yl)ethyl)-3-(trans-4-hydroxycyclohexyl)urea (ent-1)]
10.00	COc1cc(F)c(CC(NC(=O)NC23CCC(O)(CC2)CC3)c2nc3ccc(F)cc3[nH]2)c(F)c1 (single isomer, unassigned; ent-1) [Example 367, 1-(2-(2,6-Difluoro-4-methoxyphenyl)-1-(6-fluoro-1H-benzo[d]imidazol-2-yl)ethyl)-3-(4-hydroxybicyclo[2.2.2]octan-1-yl)urea (ent-1)]
8.74	CCc1ccc(CC(NC(=O)N[C@H]2CC[C@H](O)CC2)c2nc3cc(F)ccc3[nH]2)cc1 (single isomer, unassigned; ent-1) [Example 368, 1-(2-(4-Ethylphenyl)-1-(5-fluoro-1H-benzo[d]imidazol-2-yl)ethyl)-3-(trans-4-hydroxycyclohexyl)urea (ent-1)]
9.40	COc1ccc(CC(NC(=O)N[C@H]2CC[C@H](O)CC2)c2nc3cc(F)ccc3[nH]2)c(F)c1F (single isomer, unassigned; ent-1) [Example 375, 1-(2-(2,3-Difluoro-4-methoxyphenyl)-1-(5-fluoro-1H-benzo[d]imidazol-2-yl)ethyl)-3-(trans-4-hydroxycyclohexyl)urea (ent-1)]
8.33	CC(F)(F)c1ccc(CC(NC(=O)N[C@H]2CC[C@H](O)CC2)c2nc3ccccc3[nH]2)cc1 (single isomer, unassigned; ent-1) [Example 394, 1-(1-(1H-Benzo[d]imidazol-2-yl)-2-(4-(1,1-difluoroethyl)phenyl)ethyl)-3-(trans-4-hydroxycyclohexyl)urea (ent-1)]
5.77	O=C(NC(Cc1ccc(C(F)(F)F)cc1F)c1nc2ccccc2[nH]1)N[C@H]1CC[C@H](O)CC1 (single isomer, unassigned; ent-1) [Example 399, 1-(1-(1H-Benzo[d]imidazol-2-yl)-2-(2-fluoro-4-(trifluoromethyl)phenyl)ethyl)-3-(trans-4-hydroxycyclohexyl)urea (ent-1)]
8.59	O=C(NC(Cc1ccc(Br)c(F)c1)c1nc2ccc(F)cc2[nH]1)NC12CCC(O)(CC1)CC2 (single isomer, unassigned; ent-1) [Example 400, 1-(2-(4-bromo-3-fluorophenyl)-1-(6-fluoro-1H-benzo[d]imidazol-2-yl)ethyl)-3-(4-hydroxybicyclo[2.2.2]octan-1-yl)urea (ent-1)]
6.92	COc1ccc(CC(NC(=O)N[C@H]2CC[C@H](O)CC2)c2nc3cc(Br)c(Br)cc3[nH]2)cc1 (single isomer, unassigned; ent-1) [Example 425, 1-(1-(5,6-dibromo-1H-benzo[d]imidazol-2-yl)-2-(4-methoxyphenyl)ethyl)-3-(trans-4-hydroxycyclohexyl)urea (ent-1)]
7.96	O=C(NC(Cc1ccc(Br)c(F)c1)c1nc2ccccc2[nH]1)N[C@H]1CC[C@H](O)CC1 (single isomer, unassigned; ent-2) [Example 262, 1-(1-(1H-Benzo[d]imidazol-2-yl)-2-(4-bromo-3-fluorophenyl)ethyl)-3-(trans-4-hydroxycyclohexyl)urea (ent-2)]
8.48	COc1ccc(CC(NC(=O)N[C@H]2CC[C@H](O)CC2)c2nc3ccccc3[nH]2)c(F)c1 (single isomer, unassigned; ent-2) [Example 310, 1-(1-(1H-Benzo[d]imidazol-2-yl)-2-(2-fluoro-4-methoxyphenyl)ethyl)-3-(trans-4-hydroxycyclohexyl)urea (ent-2)]
8.24	CC1(O)CCC(NC(=O)NC(Cc2ccc(Br)c(F)c2)c2nc3ccccc3[nH]2)CC1 (single isomer, unassigned; ent-2) [Example 317, 1-(1-(1H-Benzo[d]imidazol-2-yl)-2-(4-bromo-3-fluorophenyl)ethyl)-3-(trans-4-hydroxy-4-methylcyclohexyl)urea (ent-2)]
7.72	O=C(NC(Cc1ccc(C(F)(F)F)cc1F)c1nc2ccccc2[nH]1)N[C@H]1CC[C@H](O)CC1 (single isomer, unassigned; ent-2) [Example 359, 1-(1-(1H-Benzo[d]imidazol-2-yl)-2-(2-fluoro-4-(trifluoromethyl)phenyl)ethyl)-3-(trans-4-hydroxycyclohexyl)urea (ent-2)]
8.14	O=C(NC(Cc1ccc(C(F)F)cc1)c1nc2ccccc2[nH]1)N[C@H]1CC[C@H](O)CC1 (single isomer, unassigned; ent-2) [Example 369, 1-(1-(1H-Benzo[d]imidazol-2-yl)-2-(4-(difluoromethyl)phenyl)ethyl)-3-(trans-4-hydroxycyclohexyl)urea (ent-2)]
6.14	COc1ccc(CC(NC(=O)N[C@H]2CC[C@H](O)CC2)c2nc3ccc(F)cc3[nH]2)c(F)c1 (single isomer, unassigned; ent-2) [Example 370, 1-(1-(6-Fluoro-1H-benzo[d]imidazol-2-yl)-2-(2-fluoro-4-methoxyphenyl)ethyl)-3-(trans-4-hydroxycyclohexyl)urea (ent-2)]
6.60	COc1ccc(CC(NC(=O)N[C@H]2CC[C@H](O)CC2)c2nc3ccc(F)cc3[nH]2)cc1F (single isomer, unassigned; ent-2) [Example 371, 1-(1-(6-Fluoro-1H-benzo[d]imidazol-2-yl)-2-(3-fluoro-4-methoxyphenyl)ethyl)-3-(trans-4-hydroxycyclohexyl)urea (ent-2)]
6.11	COc1ccc(CC(NC(=O)NC23CCC(O)(CC2)CC3)c2nc3ccc(F)cc3[nH]2)cc1F (single isomer, unassigned; ent-2) [Example 372, 1-(1-(6-Fluoro-1H-benzo[d]imidazol-2-yl)-2-(3-fluoro-4-methoxyphenyl)ethyl)-3-(4-hydroxybicyclo[2.2.2]octan-1-yl)urea (ent-2)]
6.97	COc1cc(F)c(CC(NC(=O)NC23CCC(O)(CC2)CC3)c2nc3ccc(F)cc3[nH]2)c(F)c1 (single isomer, unassigned; ent-2) [Example 373, 1-(2-(2,6-Difluoro-4-methoxyphenyl)-1-(6-fluoro-1H-benzo[d]imidazol-2-yl)ethyl)-3-(4-hydroxybicyclo[2.2.2]octan-1-yl)urea (ent-2)]
6.22	CCc1ccc(CC(NC(=O)N[C@H]2CC[C@H](O)CC2)c2nc3cc(F)ccc3[nH]2)cc1 (single isomer, unassigned; ent-2) [Example 374, 1-(2-(4-Ethylphenyl)-1-(5-fluoro-1H-benzo[d]imidazol-2-yl)ethyl)-3-(trans-4-hydroxycyclohexyl)urea (ent-2)]
7.17	COc1ccc(CC(NC(=O)N[C@H]2CC[C@H](O)CC2)c2nc3cc(F)ccc3[nH]2)c(F)c1F (single isomer, unassigned; ent-2) [Example 376, 1-(2-(2,3-Difluoro-4-methoxyphenyl)-1-(5-fluoro-1H-benzo[d]imidazol-2-yl)ethyl)-3-(trans-4-hydroxycyclohexyl)urea (ent-2)]
5.58	COc1ccc(CC(NC(=O)NC23CCC(O)(CC2)CC3)c2nc3ccc(F)cc3[nH]2)c(F)c1 (single isomer, unassigned; ent-2) [Example 398, 1-(1-(6-Fluoro-1H-benzo[d]imidazol-2-yl)-2-(2-fluoro-4-methoxyphenyl)ethyl)-3-(4-hydroxybicyclo[2.2.2]octan-1-yl)urea (ent-2)]
